As a reminder, the inhibition is the share of the control response that was lost under treatment. A low value points to a response near the control.

Test [1] addresses T1, 3-oxo-5-alpha-steroid 4-dehydrogenase 1 (Homo sapiens, UniProt P18405).
T1 sequence (P18405 whole entry): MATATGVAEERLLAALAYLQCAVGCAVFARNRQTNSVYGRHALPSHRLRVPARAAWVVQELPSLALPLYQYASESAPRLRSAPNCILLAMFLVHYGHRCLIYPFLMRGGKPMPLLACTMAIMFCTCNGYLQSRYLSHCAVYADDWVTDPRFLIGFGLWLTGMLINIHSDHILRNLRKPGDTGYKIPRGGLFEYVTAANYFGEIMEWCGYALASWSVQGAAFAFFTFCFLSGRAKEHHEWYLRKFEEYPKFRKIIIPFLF
The experiment in a line: Apparent inhibition constant towards human Steroid 5-alpha-reductase type I. The settings on record: read-out: Ki app.

Test [2] has as its target T2, 3-oxo-5-alpha-steroid 4-dehydrogenase 2 (Homo sapiens, UniProt P31213).
T2 sequence (P31213 whole entry): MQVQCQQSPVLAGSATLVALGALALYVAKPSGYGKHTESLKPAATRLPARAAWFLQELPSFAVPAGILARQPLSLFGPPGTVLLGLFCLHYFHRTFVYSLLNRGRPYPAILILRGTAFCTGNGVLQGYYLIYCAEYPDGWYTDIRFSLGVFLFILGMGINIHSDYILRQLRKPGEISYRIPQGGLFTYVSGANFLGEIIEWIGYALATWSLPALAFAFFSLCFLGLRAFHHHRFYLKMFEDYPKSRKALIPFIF
The experiment in a line: Apparent inhibition constant towards human Steroid 5-alpha-reductase type 2. The settings on record: read-out: Ki app.

In test [3] the target is T3, 3-oxo-5-alpha-steroid 4-dehydrogenase 2 (Homo sapiens) (UniProt P31213).
T3 sequence (whole entry): T2 sequence (P31213 whole entry)
As to the kind of experiment: Percent inhibition towards human Steroid 5-alpha-reductase type 2 at 2.5 uM concentration.

For test [4], the target named is T1, 3-oxo-5-alpha-steroid 4-dehydrogenase 1. As to the kind of experiment: Apparent inhibition constant towards human Steroid 5-alpha-reductase type I; […].

Some results are limits rather than exact numbers.

As to `CN1C(=O)CCC2(C)c3ccc(Cl)cc3CCC12` (centres undefined), the values for the Ki in test [1] and in test [2] were 20 nM and more than 5000 nM, respectively.
With `CC12CCC(P(O)O)=CC1=CCc1cc(Cl)ccc12` (centres undefined), the values for the Ki in test [1] and in test [2] were 1900 nM and 1600 nM, respectively.
On to `CC12CCC(C(=O)O)=CC1=CCc1cc(Cl)ccc12` (centres undefined), for which the results for the Ki in test [1] and in test [2] were 1200 nM and 260 nM, respectively.
`COc1cccc2c1CC=C1C=C(C(=O)O)CCC12C` (centres undefined): the Ki is 1900 nM in test [1] and 1600 nM in test [2].
Taken in the same sequence, the figures for `CC(C)(C)NC(=O)[C@H]1CC[C@H]2[C@@H]3CC[C@H]4NC(=O)C=C[C@]4(C)[C@H]3CC[C@]12C` [FINASTERIDE] were 100 nM and 2 nM.
On to `CC(C)N(C(=O)[C@H]1CCC2C3CC=C4C=C(P(O)O)CC[C@]4(C)C3CC[C@@]21C)C(C)C` (some centres undefined), for which the Ki in test [1] is 4900 nM; in test [2], 0.8 nM.
In turn, `COc1ccc2c(c1)CC=C1C=C(C(=O)O)CCC12C` (centres undefined) gave an inhibition in test [3] of 30%. For the same compound, the Ki app result in test [4] is on record as “No inhibition”. Also, the Ki in test [2] was more than 2500 nM.
Consider `COc1cccc2c1CC=C1C=C(P(O)O)CCC12C` (centres undefined), for which the results for the Ki in test [1] and in test [2] were 1900 nM and 1600 nM, respectively.
On to `CC(C)(C)NC(=O)[C@H]1CC[C@H]2[C@@H]3CC=C4C=C(C(=O)O)CC[C@]4(C)[C@H]3CC[C@]12C` [EPRISTERIDE], for which the Ki in test [1] was 410 nM; in test [2] it was 0.2 nM.
